In patent publication US20230348917A1, “EXPRESSION VECTOR FOR USE IN METHANOTROPH” (priority 2020, published 2023):

Columns and labels:
[1] = test system: dTomato expression in M. trichosporium OB3b; test: dTomato expression by fluorescence (microplate reader, FACS) in transconjugated M. trichosporium OB3b; format: cell-based, Methylosinus trichosporium OB3b; conditions: pAWP89S-Ptet-dTomato plasmid; aTc induction
Method: For analysis of the expression level by fluorescence, 200 μl was sampled in a 96-well plate and a Tecan microplate reader (excitation: 535 nm, emission: 590 nm) was used. FACS analysis was performed using BD Biosciences FACSCalibur equipment (excitation: 488 nm, emission: 585 nm).
M. trichosporium OB3b transconjugated with the pAWP89S-Ptet-dTomato plasmid was treated with anhydrotetracycline (aTc) at 0 μM, 0.5 μM, 1 μM, or 2 μM, respectively, to induce expression, and the expression of the fluorescent protein dTomato was examined for 8 days. The experiment was performed by the method of Experimental Example 3 above.

[2] = test system: M. capsulatus Bath with the pAWP89S-Po-dTomato plasmid; conditions: 0.5 mM benzene, 24 hours
Method: It was confirmed whether dTomato could be induced with benzene under sMMO expression conditions (copper-deficient medium).
The M. capsulatus Bath with the pAWP89S-Po-dTomato plasmid were cultured under sMMO expression condition (copper-deficient medium) and pMMO expression condition (copper-containing medium) while supplying 0.5 mM benzene for 24 hours. A strain supplied with 10 μM of phenol was used as a control group.

M. capsulatus Bath [3] = test: Toxicity test of isoprene and epoxy isoprene (growth assay); format: cell-based, Methylococcus capsulatus Bath; conditions: various concentrations of isoprene, or 1.35 and 13.5 mg/L epoxyisoprene; for growth of the strain expressing sMMO: absence of copper; for growth of the cells expressing pMMO: presence of copper
Method: To analyze the toxicity of isoprene and epoxyisoprene using wild-type strains, 2 mL cultures were transferred to 150 mL serum bottle containing 19 ml NMS medium with or without 10 μM CuCl2. After incubation for 6.5 to 7.5 hours, an appropriate amount of isoprene or epoxy isoprene (2-methyl-2-vinyloxirane) diluted in dodecane was added. The bottle was sealed, 50% of the headspace was replaced with methane, and the bottle was further incubated. Sampling of 1 mL cultures for cell density measurement was performed at appropriate time intervals using a disposable syringe without reopening the bottle.
To examine the potential toxicity of isoprene produced in M. capsulatus Bath, growth assays were performed in the presence of various concentrations of isoprene while regulating the expression of sMMO and pMMO enzymes by controlling the addition of copper.
In addition, in order to examine whether the growth inhibition of the strain was due to the oxidation of isoprene by sMMO, the strain growth was analyzed in the presence of 1.35 and 13.5 mg/L of epoxyisoprene, an oxidation product of isoprene. As a result, it was confirmed that the growth of both the sMMO-expressing strain and the pMMO-expressing strain were reduced depending on the concentration of the epoxy isoprene treated above ((d) and (e) in FIG. 17).

M. capsulatus Bath [4] = conditions: pAWP89S-Po-dTomato strain; 100 μM phenol compared with 10 μM phenol
Method: (§1) The transconjugated M. capsulatus Bath and M. trichosporium OB3b were inoculated by 10% in NMS medium containing 25 μg/ml kanamycin and 10 μM CuCl2. For the methanotrophs transconjugated with the pAWP89S-Po-dTomato, 10 μM of phenol was contained in the medium. After sealing, 50% methane gas was substituted in the headspace. The recombinant M. capsulatus Bath was cultured at 37° C. for 24 hours or 44 to 48 hours, and therecombinant M. trichosporium OB3b was cultured at 30° C.

[5] = test system: dTomato expression in M. capsulatus Bath; test: dTomato expression by fluorescence in transconjugated M. capsulatus Bath; format: cell-based, Methylococcus capsulatus Bath; conditions: pAWP89S-Po-dTomato plasmid; 10 μM phenol
Method: as §1

In the case of Cc1c2c(c(O)c3c(O)cccc13)C(=O)[C@]1(O)C(=O)C(C(N)=O)=C(O)[C@@H](N(C)C)[C@@H]1C2 [aTc, anhydrotetracycline], the “FACS distribution of dTomato fluorescence of individual cells” value [1] is reported as “two peaks were formed” and the “time required for expression to be most active” value [1] is reported as “about 8 days”.

c1ccccc1 [benzene] was tested, and the “dTomato expression (fluorescence value)” value ([2]; pMMO expression condition (copper-containing medium)) was “relatively small fluorescence value” and the dTomato expression ([2]; sMMO expression condition (copper-deficient medium)) was “highly induced”.

In the case of C=CC1(C)CO1 (stereo not shown) [epoxyisoprene, 2-methyl-2-vinyloxirane], the “growth of the strain expressing sMMO” value (M. capsulatus Bath [3]) is reported as “reduced” and the “growth of the cells expressing pMMO” value (M. capsulatus Bath [3]) is reported as “reduced”.

In the case of C=CC(=C)C [isoprene], the “growth of the strain expressing sMMO” value (M. capsulatus Bath [3]) is reported as “reduced” and the “growth of the cells expressing pMMO” value (M. capsulatus Bath [3]) is reported as “unaffected”.

With Oc1ccccc1 [phenol] the strain growth (M. capsulatus Bath [4]) was “inhibited” and the “time after phenol supply at which fluorescence due to dTomato expression was observed” value [5] was 5 h.
